Data from ChEMBL document CHEMBL1201862, “PubChem BioAssay data set” (2004).
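In this assay, cells in 96-well plates receive the compound at five concentrations for 48 hours. Endpoints are linearly interpolated between the surrounding concentrations. GI50 = concentration required for 50% inhibition of growth.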 The source made the active and inactive calls. Rule as the data show it: active = GI50 up to about 1.1 µM and inactive = higher.

What was measured:
Experiment in all cases: NCI anticancer screen, dose series, 48 h
786-0 = tested on: 786-0
A498 = tested on: A498
A549 = tested on: A549
ACHN = tested on: ACHN
BT-549 = tested on: BT-549
CAKI-1 = tested on: CAKI-1
CCRF-CEM = tested on: CCRF-CEM
COLO 205 = tested on: COLO 205
DLD-1 = tested on: DLD-1
DMS-114 = tested on: DMS-114
DMS-273 = tested on: DMS-273
DU-145 = tested on: DU-145
EKVX = tested on: EKVX
HCC 2998 = tested on: HCC 2998
HCT-116 = tested on: HCT-116
HCT-15 = tested on: HCT-15
HL-60 = tested on: HL-60
HOP-18 = tested on: HOP-18
HOP-62 = tested on: HOP-62
HOP-92 = tested on: HOP-92
HT-29 = tested on: HT-29
Hs-578T = tested on: Hs-578T
IGROV-1 = tested on: IGROV-1
K562 = tested on: K562
KM-20L2 = tested on: KM-20L2
KM12 = tested on: KM12
LOX IMVI = tested on: LOX IMVI
LXFL 529 = tested on: LXFL 529
M14 = tested on: M14
M19-MEL = tested on: M19-MEL
MCF7 = tested on: MCF7
MDA-MB-231 = tested on: MDA-MB-231
MDA-MB-435 = tested on: MDA-MB-435
MDA-N = tested on: MDA-N
MOLT-4 = tested on: MOLT-4
Malme-3M = tested on: Malme-3M
NCI-H226 = tested on: NCI-H226
NCI-H23 = tested on: NCI-H23
NCI-H460 = tested on: NCI-H460
NCI-H522 = tested on: NCI-H522
NCI/ADR-RES = tested on: NCI/ADR-RES
OVCAR-3 = tested on: OVCAR-3
OVCAR-4 = tested on: OVCAR-4
OVCAR-5 = tested on: OVCAR-5
OVCAR-8 = tested on: OVCAR-8
PC-3 = tested on: PC-3
RPMI-8226 = tested on: RPMI-8226
RXF 393 = tested on: RXF 393
RXF 631 = tested on: RXF 631
SF-268 = tested on: SF-268
SF-295 = tested on: SF-295
SF-539 = tested on: SF-539
SK-MEL-28 = tested on: SK-MEL-28
SK-MEL-2 = tested on: SK-MEL-2
SK-MEL-5 = tested on: SK-MEL-5
SK-OV-3 = tested on: SK-OV-3
SN12C = tested on: SN12C
SNB-19 = tested on: SNB-19
SNB-75 = tested on: SNB-75
SNB-78 = tested on: SNB-78
SR = tested on: SR
SW-620 = tested on: SW-620
T47D = tested on: T47D
TK-10 = tested on: TK-10
U-251 = tested on: U-251
UACC-257 = tested on: UACC-257
UACC-62 = tested on: UACC-62
UO-31 = tested on: UO-31
XF498 = tested on: XF498

Measured: GI50

COC(=O)C1=C(C=O)C2C=CC1C2 (centres undefined)
inactive: 786-0 > 92.3 µM | A498 > 100 µM | A549 > 100 µM | ACHN > 67.9 µM | BT-549 > 100 µM | CAKI-1 44.2 µM | CCRF-CEM 25.1 µM | COLO 205 46.3 µM | DLD-1 27.9 µM | DMS-114 > 57.7 µM | DMS-273 > 44.2 µM | DU-145 > 100 µM | EKVX 98.4 µM | HCC 2998 > 89.1 µM | HCT-116 58.9 µM | HL-60 21.3 µM | HOP-18 30.5 µM | HOP-62 > 100 µM | HOP-92 > 100 µM | HT-29 > 66.2 µM | Hs-578T > 100 µM | IGROV-1 > 100 µM | K562 34.2 µM | KM-20L2 > 63 µM | KM12 > 100 µM | LOX IMVI > 60.5 µM | LXFL 529 21.1 µM | M14 45.1 µM | M19-MEL > 45 µM | MCF7 > 100 µM | MDA-MB-231 > 100 µM | MDA-MB-435 > 100 µM | MDA-N > 100 µM | MOLT-4 35.6 µM | Malme-3M 56.9 µM | NCI-H226 > 100 µM | NCI-H23 > 97.5 µM | NCI-H460 > 100 µM | NCI-H522 44.5 µM | NCI/ADR-RES > 100 µM | OVCAR-3 55.8 µM | OVCAR-4 > 82.8 µM | OVCAR-5 > 100 µM | OVCAR-8 55 µM | PC-3 > 100 µM | RPMI-8226 51.1 µM | RXF 393 81.5 µM | RXF 631 > 100 µM | SF-268 > 83.4 µM | SF-295 > 100 µM | SF-539 > 100 µM | SK-MEL-28 > 64.3 µM | SK-MEL-2 > 100 µM | SK-MEL-5 > 100 µM | SK-OV-3 > 68.7 µM | SN12C > 71.8 µM | SNB-19 > 100 µM | SNB-75 28.6 µM | SNB-78 74.1 µM | SR > 56.6 µM | SW-620 43.6 µM | T47D > 100 µM | TK-10 53.8 µM | U-251 > 88.5 µM | UACC-257 47.9 µM | UACC-62 > 93.1 µM | UO-31 > 100 µM | XF498 27.2 µM
42.1 µM: HCT-15
